PMC5927461, “Activation of host transient receptor potential (TRP) channels by praziquantel stereoisomers” (PLoS Neglected Tropical Diseases, 2018)

What was measured:
[1] = tested on: mouse mesenteric arteries; test: Wire myography, mesenteric artery strips precontracted with high K+ (KPSS)
[2] = target: hTRPA1 (Homo sapiens, UniProt O75762); test: TRP channel panel primary screen (FLIPR Calcium 5, stable HEK line); assay type: cell-based; conditions: 0.3-300μM; effects over the micromolar range
Protocol: (§1) ±PZQ, (R)-PZQ and (S)-PZQ were screened against a panel of 17 human TRP channels (SB Drug Discovery, Glasgow). For all hTRPs, except for TRPM5, individual channel constructs were stably expressed in HEK cell lines. TRMP5 was expressed in a stable CHO cell line. In preparation for the assays, cells were trypsinized, counted and seeded (50,000 cells/well) in black, clear-bottomed 96 well plates and incubated overnight. The following day, cells were loaded with a fluorescent indicator (FLIPR Calcium 5 Assay kit for TRPA1, TRPV1, TRPV2, TRPV3, TRPV4, TRPV5, TRPC1, TRPM2, TRPM3 and TRPM8, or a membrane potential dye (FLIPR Membrane Potential Red Assay Kit for TRPC3, TRPC4, TRPC5, TRPC6, TRPC7, TRPM4 and TRPM5) prepared according to the manufacturer’s instructions in HEPES buffered Hank’s balanced salt solution (HBSS). Dye solution (10μl) was added to appropriate wells and incubated at 37°C for 1 hour. All assays were performed at room temperature. Compounds were tested at 0.3, 1, 3, 10, 30, 100μM and 300μM in triplicate in both agonist and antagonist mode to determine EC50 and IC50 values, which were compared with reference compounds. Compounds were screened at a final DMSO concentration of 0.5%. Plates were screened using a Flexstation (Molecular Devices, FX01138), monitoring fluorescence values every ~1.52 seconds. For ‘agonist mode’ testing, 10μl of the appropriate test compound, or standard agonist, was added after 20 seconds and fluorescence monitored for 2 minutes at λex = 485nm, λem = 525nm for Ca^2+ imaging and λex = 530nm, λem = 565nm for membrane potential measurements. For ‘antagonist mode’ testing, test compounds and standard inhibitors were added to appropriate wells and incubated for 10 minutes at room temperature prior to addition of standard agonist compound.

[3] = target: hTRPM8 (Homo sapiens, UniProt Q7Z2W7); test: as above; assay type: cell-based; conditions: 0.3-300μM; effects over the micromolar range
Protocol: as §1

[4] = target: T1, hTRPC7 (Homo sapiens, UniProt Q9HCX4); test: TRP channel panel primary screen (membrane potential dye, stable HEK line); assay type: cell-based; conditions: 0.3-300μM; effects over the micromolar range
T1 sequence (Q9HCX4 1-862): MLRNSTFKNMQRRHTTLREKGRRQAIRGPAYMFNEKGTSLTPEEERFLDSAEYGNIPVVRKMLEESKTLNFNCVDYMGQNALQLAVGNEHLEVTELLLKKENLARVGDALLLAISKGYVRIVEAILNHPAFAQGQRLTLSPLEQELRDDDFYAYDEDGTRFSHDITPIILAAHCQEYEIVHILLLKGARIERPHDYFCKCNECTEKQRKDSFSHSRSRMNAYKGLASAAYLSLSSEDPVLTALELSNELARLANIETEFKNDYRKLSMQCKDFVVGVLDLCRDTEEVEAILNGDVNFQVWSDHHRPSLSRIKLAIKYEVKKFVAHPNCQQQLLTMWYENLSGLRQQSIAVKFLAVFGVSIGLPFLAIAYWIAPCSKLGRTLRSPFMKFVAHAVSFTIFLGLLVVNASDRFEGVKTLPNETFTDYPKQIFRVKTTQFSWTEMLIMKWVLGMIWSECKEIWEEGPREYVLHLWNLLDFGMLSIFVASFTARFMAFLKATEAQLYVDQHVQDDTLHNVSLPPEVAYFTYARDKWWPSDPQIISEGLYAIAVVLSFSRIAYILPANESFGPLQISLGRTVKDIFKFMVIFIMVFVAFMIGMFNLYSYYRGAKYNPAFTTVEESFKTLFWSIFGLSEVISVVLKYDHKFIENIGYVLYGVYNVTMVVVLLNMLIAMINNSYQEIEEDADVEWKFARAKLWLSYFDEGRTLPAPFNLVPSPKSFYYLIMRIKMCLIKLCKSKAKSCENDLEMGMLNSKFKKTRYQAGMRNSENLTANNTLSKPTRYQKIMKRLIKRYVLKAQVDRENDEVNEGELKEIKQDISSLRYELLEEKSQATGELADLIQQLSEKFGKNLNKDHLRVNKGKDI
Protocol: as §1

[5] = target: T2, hTRPC3 (Homo sapiens, UniProt Q13507); test: as above; assay type: cell-based; conditions: 0.3-300μM; effects over the micromolar range
T2 sequence (Q13507 1-921): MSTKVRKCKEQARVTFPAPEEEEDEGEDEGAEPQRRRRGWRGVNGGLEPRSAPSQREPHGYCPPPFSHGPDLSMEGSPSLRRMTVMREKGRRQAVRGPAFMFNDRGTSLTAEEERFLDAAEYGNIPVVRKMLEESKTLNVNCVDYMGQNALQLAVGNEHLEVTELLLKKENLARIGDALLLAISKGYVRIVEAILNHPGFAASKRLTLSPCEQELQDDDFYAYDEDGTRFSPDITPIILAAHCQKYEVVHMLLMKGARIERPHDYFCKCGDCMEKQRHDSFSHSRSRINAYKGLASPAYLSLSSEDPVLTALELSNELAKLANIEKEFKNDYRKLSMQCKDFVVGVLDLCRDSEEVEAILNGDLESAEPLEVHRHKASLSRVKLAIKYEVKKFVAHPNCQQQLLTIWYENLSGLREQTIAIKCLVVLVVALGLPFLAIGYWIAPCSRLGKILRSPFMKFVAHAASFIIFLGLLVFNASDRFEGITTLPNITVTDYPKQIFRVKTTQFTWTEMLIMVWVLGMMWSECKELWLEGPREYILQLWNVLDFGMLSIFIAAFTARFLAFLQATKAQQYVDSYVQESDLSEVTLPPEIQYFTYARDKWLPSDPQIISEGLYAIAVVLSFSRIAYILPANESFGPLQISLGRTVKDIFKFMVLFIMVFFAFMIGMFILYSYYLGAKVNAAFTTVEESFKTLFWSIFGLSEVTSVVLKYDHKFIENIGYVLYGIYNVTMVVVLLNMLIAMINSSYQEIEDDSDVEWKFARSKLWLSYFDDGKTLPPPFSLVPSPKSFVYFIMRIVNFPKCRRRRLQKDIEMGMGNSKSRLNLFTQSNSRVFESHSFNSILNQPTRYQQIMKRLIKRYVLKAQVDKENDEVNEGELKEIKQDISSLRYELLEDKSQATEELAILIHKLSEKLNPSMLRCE
Protocol: as §1

hTRPM8, sequence (Q7Z2W7 whole entry): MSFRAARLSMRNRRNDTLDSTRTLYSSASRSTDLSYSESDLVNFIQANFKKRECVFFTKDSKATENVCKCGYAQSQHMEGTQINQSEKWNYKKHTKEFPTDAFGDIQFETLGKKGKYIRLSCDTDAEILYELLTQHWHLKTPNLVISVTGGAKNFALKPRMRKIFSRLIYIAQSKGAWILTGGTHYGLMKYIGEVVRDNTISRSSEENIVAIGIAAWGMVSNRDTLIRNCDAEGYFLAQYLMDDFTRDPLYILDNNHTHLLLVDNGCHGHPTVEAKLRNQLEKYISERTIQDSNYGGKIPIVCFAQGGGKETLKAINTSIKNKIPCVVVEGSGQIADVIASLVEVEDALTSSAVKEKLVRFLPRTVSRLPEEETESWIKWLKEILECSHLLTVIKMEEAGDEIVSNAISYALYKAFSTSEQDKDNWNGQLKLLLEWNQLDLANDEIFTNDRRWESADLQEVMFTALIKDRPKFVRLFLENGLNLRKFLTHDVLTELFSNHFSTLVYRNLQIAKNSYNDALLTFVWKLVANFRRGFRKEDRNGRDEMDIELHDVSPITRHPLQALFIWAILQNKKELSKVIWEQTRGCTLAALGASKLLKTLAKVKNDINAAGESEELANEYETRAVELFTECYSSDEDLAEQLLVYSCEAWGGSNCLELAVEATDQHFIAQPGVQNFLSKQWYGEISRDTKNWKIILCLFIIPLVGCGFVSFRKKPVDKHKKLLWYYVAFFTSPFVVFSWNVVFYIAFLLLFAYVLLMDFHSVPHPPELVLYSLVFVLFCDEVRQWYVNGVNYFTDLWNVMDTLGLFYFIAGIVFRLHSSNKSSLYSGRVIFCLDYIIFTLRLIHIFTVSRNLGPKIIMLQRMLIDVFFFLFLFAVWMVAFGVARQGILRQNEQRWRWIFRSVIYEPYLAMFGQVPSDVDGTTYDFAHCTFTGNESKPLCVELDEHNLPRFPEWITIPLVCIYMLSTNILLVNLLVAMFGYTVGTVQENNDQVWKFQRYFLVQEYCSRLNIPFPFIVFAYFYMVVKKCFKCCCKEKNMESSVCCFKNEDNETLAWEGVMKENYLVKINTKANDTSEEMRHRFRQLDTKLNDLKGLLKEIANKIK
hTRPA1, sequence (O75762 whole entry): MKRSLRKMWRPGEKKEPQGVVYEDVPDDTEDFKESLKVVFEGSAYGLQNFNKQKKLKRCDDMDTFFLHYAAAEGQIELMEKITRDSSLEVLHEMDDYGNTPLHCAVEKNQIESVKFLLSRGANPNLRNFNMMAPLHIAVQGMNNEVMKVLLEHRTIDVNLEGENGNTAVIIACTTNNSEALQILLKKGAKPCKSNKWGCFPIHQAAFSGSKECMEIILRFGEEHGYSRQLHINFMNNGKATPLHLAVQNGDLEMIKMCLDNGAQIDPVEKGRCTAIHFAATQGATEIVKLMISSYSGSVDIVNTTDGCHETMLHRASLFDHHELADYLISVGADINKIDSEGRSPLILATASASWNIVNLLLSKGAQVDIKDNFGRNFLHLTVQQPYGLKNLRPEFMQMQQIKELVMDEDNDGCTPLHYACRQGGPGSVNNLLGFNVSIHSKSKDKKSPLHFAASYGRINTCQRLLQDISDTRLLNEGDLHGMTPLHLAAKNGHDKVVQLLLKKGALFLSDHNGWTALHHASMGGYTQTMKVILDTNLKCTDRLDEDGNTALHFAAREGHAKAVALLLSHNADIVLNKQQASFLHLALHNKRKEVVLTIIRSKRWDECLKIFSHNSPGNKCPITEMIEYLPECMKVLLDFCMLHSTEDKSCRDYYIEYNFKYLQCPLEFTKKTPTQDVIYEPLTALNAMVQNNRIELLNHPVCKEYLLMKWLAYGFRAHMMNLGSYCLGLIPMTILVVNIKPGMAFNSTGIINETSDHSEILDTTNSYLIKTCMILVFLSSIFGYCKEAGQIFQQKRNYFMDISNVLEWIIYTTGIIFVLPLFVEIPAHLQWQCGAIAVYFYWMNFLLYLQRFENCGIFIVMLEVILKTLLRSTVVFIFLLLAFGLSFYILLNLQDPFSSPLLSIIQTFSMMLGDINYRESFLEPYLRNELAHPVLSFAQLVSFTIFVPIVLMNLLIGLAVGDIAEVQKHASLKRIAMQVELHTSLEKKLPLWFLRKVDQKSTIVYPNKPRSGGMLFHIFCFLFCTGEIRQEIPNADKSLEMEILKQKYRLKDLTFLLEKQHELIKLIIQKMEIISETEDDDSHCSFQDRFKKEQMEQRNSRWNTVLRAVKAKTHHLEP

| SMILES | relaxation of the KPSS-contracted vessel ([1]; 100μM, peak relaxation) [%] | activity at hTRPA1 in primary screen [2] | activity at hTRPM8 in primary screen [3] | activity at hTRPC7 in primary screen [4] | activity at hTRPC3 in primary screen [5] | change in tension of KPSS-precontracted vessels ([1]; 50μM, bath application during KPSS-evoked contraction) | extent of relaxation ([1]; WT tissue, 50μM) |
| --- | --- | --- | --- | --- | --- | --- | --- |
| O=C(C1CCCCC1)N1CC(=O)N2CCc3ccccc3C2C1 (racemic) [±PZQ, praziquantel] | 61±9 | displayed activity | displayed activity | displayed activity | displayed activity | – | – |
| O=C(C1CCCCC1)N1CC(=O)N2CCc3ccccc3[C@H]2C1 [(S)-PZQ] | – | activated | sole active enantiomer | activated | activated | decrease in tension | ~ 30 % of peak KPSS-evoked tone |
